Patent US8883718B2, “Treating cancer” (Theryte Limited, priority 2008, dated 2014)
[ ]: non-standard residue; d: D form.

Key:
[1] = tested on: normal human diploid fibroblasts; experiment: MTS cell viability assay, fibroblasts; assay type: cell-based; conditions: 12.5 to 100 μM, 2-4 weeks
Procedure: The effect of these peptides was tested on both human fibroblasts and H460 human non-small cell […] cancer cells at doses in the range 12.5 to 100 μM. The peptides were tested in vitro by exposure to 100 H460 human non-small cell lung cancer cells, or short term cultures of normal human diploid fibroblasts, in 200 ul of Ham's F12 tissue culture medium supplemented with 10% FCS. Cells were set up in 100 ul on day 0 and 24 hours later a further 100 ul of the same medium containing ×2 the appropriate concentration of peptide over a range of 12.5-100 uM was added. The cells were then incubated at 37° C., 5% CO2 in an humidified incubator for 2-4 weeks.
Cell viability was measured by an MTS assay (CellTiter 96^R Non-Radioactive Cell Proliferation Assay. Promega Corporation, 2800 Woods Hollow Road, Madison Wis. 53711-5399 USA). The original form of this assay was described by Mosmann (J. Immunol. Meth. 65; 55-63. 1983) and gives a colorometric reading whose intensity depends on the conversion, by viable cells, of a tetrazolium salt into a coloured formazan which is easily quantified by colorimetric reading of a 96 well assay plate.

Fibroblasts = experiment: Cell killing by cyclic peptides, fibroblasts (Table 2); assay type: cell-based; parameters: key: - - - = No cell killing
Procedure: (§1) Table 2 lists cyclic peptides including the PRGPRP (SEQ ID NO:2) sequence which have no effect on RT112 bladder cancer cells at a concentration of 100 μM.

[2] = tested on: RT112 bladder cancer cells; experiment: Cell killing by cyclic peptides, RT112 (Table 2); assay type: cell-based, human; parameters: key: - - - = No cell killing; conditions: 100 μM
Procedure: as §1

cancer cell = experiment: effect of amino acid stereochemistry on cancer cell-killing activity; assay type: cell-based
Text: The peptides used were: THR75 (SEQ ID NO: 24, cyc-[PRGPRPValklalklal]); THR77 (SEQ ID NO: 25, cyc-[PRGPRPValklalklaL]); THR78 (SEQ ID NO: 26, cyc-[[…]lklalklaL]; THR79 (SEQ ID NO: 11 cyc-[PRGPRPvalklalklal]). Upper case denotes the L isomer of the amino acids and lower case denotes the D isomer.
It has also been discovered that the stereochemistry of the amino acids in the peptide sequence is relevant to efficacy. Analogues of THR54 (SEQ ID NO: 10) in which certain L-amino-acids have been replaced with D-amino-acids were prepared.
This was THR79 in which was approximately 2-4 times as active as THR54.

| Substance | Cell Killing Fibroblasts (Fibroblasts) | Cell Killing RT112 [2] | also measured |
| --- | --- | --- | --- |
| Ac-PRRPGPVKLALKLALKAL-NH2 [THR51C, control for THR51 in which one arginine was switched with a glycine, reference compound] |  |  | killing of fibroblasts (cell viability, MTS) [1]: non-specific killing |
| Cyc-[AAAGGGPRGPRPGGGAAA] (cyclic; Cyclic peptide; /note=“cyclic peptide”) | - - - | - - - |  |
| Cyc-[AAGPGGPRGPRPGGPGAA] (cyclic; Cyclic peptide; /note=“cyclic peptide”) | - - - | - - - |  |
| Cyc-[GGGGGGPRGPRPGGGGGG] (cyclic; Cyclic peptide; /note=“cyclic peptide”) | - - - | - - - |  |
| Cyc-[GGGGPRGPRPGGGGPRGPRPVPRGPRPV] (cyclic; Cyclic peptide; /note=“cyclic peptide”) | - - - | - - - |  |
| cyc-[PRGPRPVALKLALKLAL] (cyclic; Cyclic peptide; /note=“cyclic peptide”) [THR54] |  |  | cancer cell-killing activity (cancer cell): active |
| cyc-[PRGPRPValklalklal] (cyclo(PRGPRPV[dA][dL][dK][dL][dA][dL][dK][dL][dA][dL]); SMILES CC(C)C[C@H]1NC(=O)[C@@H](C)NC(=O)[C@H](C(C)C)NC(=O)[C@@H]2CCCN2C(=O)[C@H](CCCNC(=N)N)NC(=O)[C@@H]2CCCN2C(=O)CNC(=O)[C@H](CCCNC(=N)N)NC(=O)[C@@H]2CCCN2C(=O)[C@@H](CC(C)C)NC(=O)[C@@H](C)NC(=O)[C@@H](CC(C)C)NC(=O)[C@@H](CCCCN)NC(=O)[C@@H](CC(C)C)NC(=O)[C@@H](C)NC(=O)[C@@H](CC(C)C)NC(=O)[C@@H](CCCCN)NC1=O) [THR 75] |  |  | cancer cell-killing activity at 100 uM (cancer cell; 100 uM concentration): remove the activity |
| cyc-[PRGPRPvalklalklal] (cyclo(PRGPRP[dV][dA][dL][dK][dL][dA][dL][dK][dL][dA][dL]); SMILES CC(C)C[C@H]1NC(=O)[C@@H](C)NC(=O)[C@@H](C(C)C)NC(=O)[C@@H]2CCCN2C(=O)[C@H](CCCNC(=N)N)NC(=O)[C@@H]2CCCN2C(=O)CNC(=O)[C@H](CCCNC(=N)N)NC(=O)[C@@H]2CCCN2C(=O)[C@@H](CC(C)C)NC(=O)[C@@H](C)NC(=O)[C@@H](CC(C)C)NC(=O)[C@@H](CCCCN)NC(=O)[C@@H](CC(C)C)NC(=O)[C@@H](C)NC(=O)[C@@H](CC(C)C)NC(=O)[C@@H](CCCCN)NC1=O) [THR79] |  |  | activity relative to THR54 (cancer cell): 2-4 times; cancer cell-killing activity (cancer cell): showed cancer cell-killing properties |
